In assay [1] the target is T1, Peroxisome proliferator-activated receptor alpha (Homo sapiens) (UniProt Q07869).
T1 sequence (whole entry): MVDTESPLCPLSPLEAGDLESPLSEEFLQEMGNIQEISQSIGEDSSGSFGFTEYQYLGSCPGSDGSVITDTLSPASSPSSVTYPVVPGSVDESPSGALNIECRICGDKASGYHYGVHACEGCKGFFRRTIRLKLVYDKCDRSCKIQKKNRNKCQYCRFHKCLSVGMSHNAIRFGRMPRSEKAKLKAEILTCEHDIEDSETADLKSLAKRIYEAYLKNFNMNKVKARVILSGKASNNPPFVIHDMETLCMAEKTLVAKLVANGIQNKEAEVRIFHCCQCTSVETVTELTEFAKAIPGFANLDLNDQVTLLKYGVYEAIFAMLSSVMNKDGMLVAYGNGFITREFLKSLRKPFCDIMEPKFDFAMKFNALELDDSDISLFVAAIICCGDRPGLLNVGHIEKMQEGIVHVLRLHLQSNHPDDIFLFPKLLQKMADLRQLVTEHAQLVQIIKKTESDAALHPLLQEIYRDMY
Nature of the assay: Agonist activity at PPARalpha ligand binding domain expressed in HEK293 cells co-expressing GAL4 at 150 uM after 18 hrs by dual-luciferase activity based transactivation assay relative to control. In kind it is cell-based.

Assay [2] addresses T2, Peroxisome proliferator-activated receptor alpha (Homo sapiens, UniProt Q07869).
T2 sequence (Q07869 whole entry): T1 sequence (whole entry)
Nature of the assay: (§1) Antagonist activity at PPARalpha ligand binding domain expressed in HEK293 cells co-expressing GAL4 assessed as inhibition of GW7647-induced transactivation activity after 18 hrs by dual-luciferase assay. The assay is classed as cell-based.

For assay [3], the target named is T1, Peroxisome proliferator-activated receptor alpha (Homo sapiens). The assay can be described thus: Antagonist activity at PPARalpha in human HepG2 cells assessed as inhibition of CPT1A mRNA expression at 150 uM after 48 hrs by RT-PCR analysis relative to control. In kind it is functional, cell-based.
The target is the same in assay [4]. The assay can be described thus: Antagonist activity at PPARalpha in human HepG2 cells assessed as inhibition of GW7647-induced CPT1A mRNA expression at 150 uM after 48 hrs by RT-PCR analysis relative to control. In kind it is functional, cell-based.
Assay [5] has as its target T2, Peroxisome proliferator-activated receptor alpha. The assay can be described thus: Agonist activity at PPARalpha ligand binding domain expressed in HEK293 cells co-expressing GAL4 after 18 hrs by dual-luciferase activity based transactivation assay. In kind it is cell-based.
Assay [6] has as its target T1, Peroxisome proliferator-activated receptor alpha (Homo sapiens). Nature of the assay: Antagonist activity at PPARalpha ligand binding domain expressed in HEK293 cells co-expressing GAL4 assessed as inhibition of GW7647-induced transactivation activity at 100 uM after 18 hrs by dual-luciferase assay relative to control. The assay is classed as cell-based.
Assay [7] has the same target. The assay can be described thus: Antagonist activity at PPARalpha ligand binding domain expressed in HEK293 cells co-expressing GAL4 assessed as inhibition of GW7647-induced transactivation activity at 10 uM after 18 hrs by dual-luciferase assay relative to control. In kind it is cell-based.
Assay [8] shares this target. The assay can be described thus: Antagonist activity at PPARalpha ligand binding domain expressed in HEK293 cells co-expressing GAL4 assessed as inhibition of transactivation activity at 100 uM after 18 hrs by dual-luciferase assay relative to control. In kind it is cell-based.
For assay [9] the target is unchanged. Nature of the assay: Antagonist activity at PPARalpha in human HepG2 cells assessed as inhibition of GW7647-induced CPT1A mRNA expression at 0.2 uM after 48 hrs by RT-PCR analysis relative to control. In kind it is functional, cell-based.
The target is the same in assay [10]. The assay can be described thus: Antagonist activity at PPARalpha ligand binding domain expressed in HEK293 cells co-expressing GAL4 assessed as inhibition of transactivation activity at 150 uM after 18 hrs by dual-luciferase assay relative to control. The assay is classed as cell-based.
Assay [11] shares this target. Nature of the assay: Antagonist activity at PPARalpha ligand binding domain expressed in HEK293 cells co-expressing GAL4 assessed as inhibition of GW7647-induced transactivation activity at 50 uM after 18 hrs by dual-luciferase assay relative to control. The assay is classed as cell-based.
The target is the same in assay [12]. Nature of the assay: Antagonist activity at PPARalpha in human HepG2 cells assessed as inhibition of GW7647-induced CPT1A mRNA expression at 2 uM after 48 hrs by RT-PCR analysis relative to control. In kind it is functional, cell-based.
Assay [13] shares this target. Nature of the assay: Antagonist activity at PPARalpha in human HepG2 cells assessed as inhibition of GW7647-induced CPT1A mRNA expression after 48 hrs by RT-PCR analysis relative to control. In kind it is functional, cell-based.
Assay [14] shares this target. The description is as §1. The assay is classed as cell-based.
The target is the same in assay [15]. Nature of the assay: Antagonist activity at PPARalpha in human HepG2 cells assessed as inhibition of GW7647-induced CPT1A mRNA expression at 20 uM after 48 hrs by RT-PCR analysis relative to control. In kind it is functional, cell-based.
For assay [16] the target is unchanged. Nature of the assay: Antagonist activity at PPARalpha ligand binding domain expressed in HEK293 cells co-expressing GAL4 assessed as inhibition of transactivation activity at 50 uM after 18 hrs by dual-luciferase assay relative to control. In kind it is cell-based.
Assay [17] shares this target. Nature of the assay: Antagonist activity at PPARalpha ligand binding domain expressed in HEK293 cells co-expressing GAL4 assessed as inhibition of GW7647-induced transactivation activity at 150 uM after 18 hrs by dual-luciferase assay relative to control. In kind it is cell-based.
For assay [18] the target is unchanged. The assay can be described thus: Antagonist activity at PPARalpha ligand binding domain expressed in HEK293 cells co-expressing GAL4 assessed as inhibition of transactivation activity at 10 uM after 18 hrs by dual-luciferase assay relative to control. The assay is classed as cell-based.
The target is the same in assay [19]. The assay can be described thus: Antagonist activity at PPARalpha ligand binding domain expressed in HEK293 cells co-expressing GAL4 assessed as inhibition of GW7647-induced transactivation activity at 1 uM after 18 hrs by dual-luciferase assay relative to control. The assay is classed as cell-based.
Assay [20] has the same target. Nature of the assay: Antagonist activity at PPARalpha ligand binding domain expressed in HEK293 cells co-expressing GAL4 assessed as inhibition of transactivation activity at 1 uM after 18 hrs by dual-luciferase assay relative to control. In kind it is cell-based.

The results in this text go back to ChEMBL document CHEMBL1806398, “Benzothiazole-based N-(phenylsulfonyl)amides as a novel family of PPARα antagonists” (Bioorg Med Chem Lett, 2011).

Molecules are shown by their SMILES.

In the case of `CC(C)(Oc1ccc(Cl)cc1)C(=O)O`, the fold change (FC) in assay [1] stood at 1.6.
For `CCCC(Sc1nc2ccc(OCC)cc2s1)C(=O)NS(=O)(=O)c1ccccc1` (racemic), the fold change (FC) in assay [1] is 0.05. For the same molecule, in [2], the IC50 is 31 µM.
Turning to `CCCC(Sc1nc2cc(Cl)ccc2s1)C(=O)NS(=O)(=O)c1ccccc1` (racemic), the values for the fold change (FC) in [3], in assay [1] and in assay [4] were 0.248, 0.09 and 0.235, respectively. For the same molecule, in [2], the IC50 was determined as 22.2 µM.
For the molecule `CC(C)C(Sc1nc2cc(Cl)ccc2s1)C(=O)NS(=O)(=O)c1ccccc1` (racemic), the fold change (FC) in [1] was 0.1. Further, the IC50 in [2] was found to be 27.9 µM.
For `CCCCC(Sc1nc2cc(Cl)ccc2s1)C(=O)NS(=O)(=O)c1ccccc1` (racemic), the fold change (FC) amounted to 0.005 in assay [3], 0.01 in assay [1] and 0.003 in [4]. In addition, in [2], the IC50 worked out at 19.9 µM.
In [5], `CCCCCCC(Sc1nc2cc(Cl)ccc2s1)C(=O)NS(=O)(=O)c1ccccc1` (racemic) showed an EC50 of 50.6 µM. Further, in assay [1], the fold change (FC) turned out to be 1.49.
As for `O=C(NS(=O)(=O)c1ccccc1)C(Sc1nc2cc(Cl)ccc2s1)c1ccccc1` (racemic), the fold change (FC) in [3] was 0.005; in [6] it was -0.1; in assay [7], 2.14; in [8], -0.03; in assay [9], 3.59; in assay [10], -0.01. For the same molecule, the fold change (FC) is -0.63 in assay [11]; 0.01 in assay [1]; 2.36 in assay [12]; 0.005 in assay [4]; 1.68 in assay [15]; -0.03 in [16]. Further, the fold change (FC) is -0.09 in assay [17], -0.23 in assay [18], 3.8 in assay [19] and -0.78 in assay [20]. Also, the inhibition entry in assay [13] and in assay [14] was “Dose-dependent effect” in each case. For the same molecule, the concentration for half-maximal inhibition (IC50) in [2] stood at 6.5 µM.
Turning to `CCOc1ccc2nc(SC(C)C(=O)NS(=O)(=O)c3ccccc3)sc2c1` (racemic), in assay [1], the fold change (FC) was determined as 0.89.

The IC50 is the concentration needed to halve the response being measured. The term EC50 denotes the concentration giving half of the maximal effect. Higher therefore signals a need for much substance.
